Structures can show the parent of a compound that is named as a salt.
Experiments:
[1] = tested on: quiescent TG1 glioblastoma stem cells; assay: ATP-Glo (Cell Titer Glo) cell viability, dose/response, quiescent TG1 cells; assay type: cell-based, human; conditions: 24 h; for EC50: Homo sapiens, Glioblastoma stem cell, TG1-A Q, experimental protocol of Example 12, ATP-Glo, read-out: EC50 Quiescent TG1; for effect on survival of quiescent TG1 cells (words): own conditioned medium
Method: The TG1 cells were put into quiescence by keeping the cells in culture without changing the medium from 9 to 16 days. The state of quiescence was verified by non-incorporation of nucleotides into the DNA of the cells (see example 9).
The quiescent cells were put back in 1 mL of conditioned medium, dissociated mechanically by pipetting up and down 100 times with a P1000 micropipette preset to 400 μl and counted with Trypan Blue, after dilution in conditioned medium, to obtain a final suspension of 8.10^5 cells/mL.
(§1) 50 μl of solution containing cells was deposited per well in a 96-well plate (Greiner #655090).
(§2) The test compounds, in solution of 100% of DMSO were diluted in culture medium: in the absence of DMSO (medium 0% DMSO) or in the presence of 2% of DMSO (medium 2% DMSO) at concentrations of 200 μM, 100 μM, 80 μM, 60 μM, 40 μM, 20 μM, 10 μM and 2 μM. For all these dilutions the final concentration in DMSO was 2% (see Table 1 below; volumes shown make it possible to construct dose/response curves, in triplicate, for 1 compound on a 96-well plate—FIG. 1)
50 μL of solution of compound was added at the concentrations specified above to 50 μL of cells in the plate (FIG. 1) (Final concentration of compounds in contact with the cells: 100 μM, 50 μM, 40 μM, 30 μM, 20 μM, 10 μM, 5 μM, 1 μM (in 1% of final DMSO). Final concentration of positive control: 50 μM in 1% of final DMSO. Final concentration of negative control: 1% final DMSO).
The cells were incubated for 23 to 24 hours at 37° C. in an incubator in the presence of 5% CO2 (under humid atmosphere at 95% provided by a reservoir filled with distilled water).
(§3) The test of cell viability was carried out using the Cell Titer Glo kit (Promega #G7571). After thawing of the Cell Titer Glo reagent (1 Buffer vial+1 Substrate vial per plate) protected from the light, the contents of the Buffer vial were transferred to the Substrate vial. 100 μl of Cell Titer Glo reagent was deposited on the cells treated with the compounds.
(§4) The results, which were given for each well in strokes per second (sps), were converted to percentage cell survival relative to the control 1% of DMSO, which was fixed at 100%.
(§5) The EC50 was determined as the concentration that gives 50% of the response.
(§6) Glioblastoma (WHO grade IV glioma) stem cells (TG1, TG16 and OB1) were derived from tumor samples of 3 patients at Sainte Anne Hospital (Paris, France), as previously described (48) and expanded as neurosphere cultures. In continuously proliferating cultures, neurospheres were mechanically dissociated into a single-cell suspension twice a week with 90% renewal of their culture medium. Quiescent glioblastoma stem cells were obtained by non-renewal of the culture medium for 9-16 days following cell seeding. The non-proliferating state was assessed by decreased ability of the cells to incorporate EdU (5-ethynyl-2′-deoxyuridine) using the Click-iT™ EdU Flow Cytometry Assay Kit (Invitrogen, France) according to the manufacturer's instructions. […]
(§7) Confirmed hit compounds from the primary and secondary screens were purchased from Prestwick Chemical and dissolved in DMSO to obtain 10 mM concentrated stock solutions. Hit compound validation was obtained through dose-response curves on the viability of TG1 glioblastoma stem cells under the same experimental conditions (cell density, treatment duration) as described for the primary and secondary screens. Each compound was tested in triplicate in at least three independent experiments on proliferating and quiescent glioblastoma stem TG1 cells.
(§8) The EC50 value was determined for each compound by fitting the data points according to the following equation: […]
(§9) where y represents the expected response (expressed as a percentage of cell viability), x is the chemical compound concentration, Smax and Smin are the maximum and minimum viability responses recorded, respectively, and n is the Hill coefficient. Curve fitting was performed using the Microsoft Excel Solver component.

[2] = tested on: proliferating TG1 glioblastoma stem cells; assay: ATP-Glo (Cell Titer Glo) cell viability, dose/response, proliferating TG1 cells; assay type: cell-based, human; conditions: for EC50: Homo sapiens, Glioblastoma stem cell, TG1-A P, experimental protocol of Example 12, ATP-Glo; for EC50 / effect on survival of proliferating TG1 cells: 24 h; for effect on survival of proliferating TG1 cells: own culture medium
Method: The TG1 proliferating cells correspond to cells for which medium is renewed regularly, twice weekly.
The proliferating cells were put back in 1 mL of fresh NS34 medium, dissociated mechanically by pipetting up and down 100 times with a P1000 micropipette preset to 400 μl and counted with Trypan Blue, after dilution in fresh NS34 medium, to obtain a final suspension of 6×10^5 cells/mL.
as §1, §2
50 μL of solution of compound was added at the concentrations specified above to 50 μL of cells in the plate (FIG. 1) (Final concentration of compounds in contact with the cells: 100 μM, 50 μM, 40 μM, 30 μM, 20 μM, 10 μM, 5 μM, 1 μM (in 1% of final DMSO). Final concentration of positive control: 50 μM in 1% of final DMSO. Final concentration of negative control: 1% final DMSO). […]
as §3, §4, §5, §6, §7, §8, §9

[3] = tested on: human fetal neural stem cells (f-NSC cells); assay: ATP-Glo cell viability on fetal neural stem cells; assay type: cell-based

| SMILES | EC50 [1] [µM] | EC50 [2] [µM] | further results |
| --- | --- | --- | --- |
| Oc1ccc(C(c2ccc(O)cc2)c2cccnc2)cc1 | 8 ± 3 | > 100 |  |
| Oc1ccc(C(c2ccncc2)c2ccc(O)cc2)cc1 | 39 ± 2 | > 100 |  |
| CC(=O)Oc1ccc(C(c2ccc(O)cc2)c2ccccn2)cc1 (stereo not shown) | 1 ± 0.5 | > 100 |  |
| CC(=O)Oc1ccc(C(c2ccc(O[Si](C)(C)C(C)(C)C)cc2)c2ccccn2)cc1 (stereo not shown) | 12.1 ± 0.6 | 12 ± 0.1 |  |
| CC(C)(C)[Si](C)(C)Oc1ccc(C(c2ccc(O)cc2)c2ccccn2)cc1 (stereo not shown) | 13 ± 3 | 13 ± 5 |  |
| COc1ccc(C(c2ccc(O)cc2)c2ccccn2)cc1 (stereo not shown) | 8 ± 6 | > 100 |  |
| C#CCOc1ccc(C(c2ccc(O)cc2)c2ccccn2)cc1 (stereo not shown) | 3 ± 1 | 39 ± 6 |  |
| CCCC(C)Oc1ccc(C(c2ccc(O)cc2)c2ccccn2)cc1 (stereo not shown) | 40 ± 10 | 55 ± 8 |  |
| CCCCCCCCCOc1ccc(C(c2ccc(OC(C)=O)cc2)c2ccccn2)cc1 (stereo not shown) | 22 ± 2 | 25.5 ± 0.6 |  |
| CCCCCCCCCOc1ccc(C(c2ccc(O)cc2)c2ccccn2)cc1 (stereo not shown) | 22 ± 3 | 25 ± 4 |  |
| c1ccc(C(c2ccccc2)c2ccccn2)cc1 | 81.9 | > 100 |  |
| Nc1ncccc1C(c1ccc(O)cc1)c1ccc(O)cc1 | 32 ± 2 | > 100 |  |
| Clc1ccc(C(c2ccc(Cl)cc2)c2ccccn2)cc1 | 35.5 ± 4.5 | 34 ± 3 |  |
| Oc1ccc(C(c2ccccc2)c2ccc(O)cc2)cc1 | 14.2 ± 8.8 | 60.8 ± 10.4 |  |
| Oc1ccc(C(c2ccccn2)c2ccccc2O)cc1 (stereo not shown) | 57.6 ± 0.7 | > 100 |  |
| Oc1ccc(C(c2ccccc2)c2ccccn2)cc1 (stereo not shown) | 17.1 ± 6.3 | > 100 |  |
| Oc1ccc(C(c2ccc(Cl)cc2)c2ccccn2)cc1 (stereo not shown) | 4 ± 1.4 | > 100 |  |
| Oc1ccc(C(c2ccc(O)cc2)c2cncc(Br)c2)cc1 | 5 | > 100 |  |
| Oc1ccc(C(c2ccc(C(F)(F)F)cc2)c2ccccn2)cc1 (stereo not shown) | 17.3 | > 100 |  |
| CC(=O)Oc1ccc(C(c2ccc(O)cc2)c2ccccn2)cc1 (racemic) [Compound 3, 4-((4-Hydroxyphenyl)(pyridin-2-yl)methyl)phenyl acetate] |  |  | effect on survival of quiescent TG1 cells (words) [1]: effect similar to that described for bisacodyl; effect on survival / toxicity, f-NSC cells [3]: little or no effect |
| COc1ccc(C(c2ccc(O)cc2)c2ccccn2)cc1 (racemic) [Compound 6, 4-((4-Methoxyphenyl)(pyridin-2-yl)methyl)phenol] |  |  | effect on survival of quiescent TG1 cells (words) [1]: effect similar to that described for bisacodyl; effect on survival / toxicity, f-NSC cells [3]: little or no effect |
| C#CCOc1ccc(C(c2ccc(O)cc2)c2ccccn2)cc1 (racemic) [Compound 9, 4-((4-(Prop-2-yn-1-yloxy)phenyl)(pyridin-2-yl)methyl)phenol] |  |  | effect on survival of quiescent TG1 cells (words) [1]: active on the quiescent cells; concentration from which a large decrease in survival of NSC cells occurs [3]: ≥ 40 µM; effect on survival of proliferating TG1 cells [2]: also on the proliferating cells; concentrations causing a considerable decrease in survival of proliferating cells ([2]; proliferating TG1 cells): above 40 μM |
| O=C(Oc1ccc(C(c2ccc(OC(=O)C(F)(F)F)cc2)c2ccccn2)cc1)C(F)(F)F [Compound 5, (Pyridin-2-ylmethylene)bis(4,1-phenylene)bis(2,2,2-trifluoroacetate)] |  |  | effect on survival of quiescent TG1 cells (words) [1]: effect similar to that described for bisacodyl; effect on survival / toxicity, f-NSC cells [3]: little or no effect |
| COc1ccc(C(c2ccc(OC(C)=O)cc2)c2ccccn2)cc1 (stereo not shown) [Compound 7, 4-((4-Methoxyphenyl)(pyridin-2-yl)methyl)phenyl acetate] |  |  | effect on survival of quiescent TG1 cells (words) [1]: effect similar to that described for bisacodyl; effect on survival / toxicity, f-NSC cells [3]: little or no effect |
| CCCCCCCCNC(C)C(O)c1ccc(SC(C)C)cc1 (stereo not shown) [Suloctidil, reference compound] |  |  | effect on survival of quiescent TG1 cells (words) [1]: overlapping cytotoxic activity; effect on survival of proliferating TG1 cells [2]: overlapping cytotoxic activity |
| OCCN1CCN(CC/C=C2/c3ccccc3Sc3ccc(Cl)cc32)CC1 [Zuclopenthixol HCl, reference compound] |  |  | effect on survival of proliferating TG1 cells [2]: more selective effects |
| CC(=O)Oc1ccc(C(c2ccc(OC(C)=O)cc2)c2ccccn2)cc1 [drawing 51] | 1.6 ± 0.3 | > 100 |  |
| Oc1ccc(C(c2ccc(O)cc2)c2ccccn2)cc1 [drawing 52] | 1 ± 0.5 | > 100 |  |
| O=C(Oc1ccc(C(c2ccc(OC(=O)C(F)(F)F)cc2)c2ccccn2)cc1)C(F)(F)F [drawing 57] | 2 ± 1 | > 100 |  |
| COc1ccc(C(c2ccc(OC(C)=O)cc2)c2ccccn2)cc1 (stereo not shown) [drawing 60] | 9 ± 4 | > 100 |  |

Reference: patent US20140186872A1, “BISACODYL AND ITS ANALOGUES AS DRUGS FOR USE IN THE TREATMENT OF CANCER” (CENTRE NATIONAL DE LA RECHERCHE SCIENTIFIQUE- CNRS, priority 2011, published 2014)
